Assay results as given in US8071353B2, “Genetic remodeling in Bifidobacterium” (Nestec S.A., priority 2007, dated 2011).
Converted amounts (≈) assume the structure as drawn.

What was measured:
[1] = system: B. animalis subsp. lactis wild-type strain NCC 2818; assay: E-TEST (AB BIODISK) tetracycline MIC determination, wild-type strain; type: cell-based, Bifidobacterium animalis subsp. lactis; details: Bifidobacterium animalis, strain NCC 2818 (wild-type, operable tetW)
Description: (§1) In certain embodiments, the wild-type cell is resistant to a higher concentration of the antibiotic than the cell of the invention, i.e. the cell with the deleted gene. Sensitivity of a microbial cell to a particular antibiotic may be measured in any of a variety of manners. One convenient means for measuring antibiotic sensitivity to use disk diffusion assays, for example the E-test (commercially produced by AB BIODISK). The E-test system uses a predefined gradient of antibiotic concentrations on a plastic strip and can be used to determine the exact Minimum Inhibitory Concentration (MIC) of an antibiotic for a particular organism.
(§2) In certain embodiments, the wild-type cell is resistant to a higher concentration of the antibiotic than the cell that results from the methods provided. Disk diffusion assays and related sensitivity tests such as the E-test (AB BIODISK) are preferred ways of measuring the sensitivity of a cell to an antibiotic. The Minimum Inhibitory Concentration (MIC), however determined, of an antibiotic for a particular organism is a convenient way to compare relative sensitivities.
(§3) A commercial E-TEST (AB BIODISK) was used to determine the MIC for tetracycline of each strain.

[2] = system: Bifidobacterium animalis subsp. lactis strain NCC 362 (wild-type); assay: E-TEST tetracycline MIC determination, FIG. 3 legend wild-type strain; type: cell-based; details: FIG. 3 left panel, read-out: Resistance to tetracycline (MIC)
Description: as §1, §3

[3] = system: B. animalis subsp. lactis strain NCC 9034 (tetW deleted); assay: E-TEST (AB BIODISK) tetracycline MIC determination, tetW deletion strain; type: cell-based, Bifidobacterium animalis subsp. lactis
Description: as §1, §2, §3

Compound CN(C)[C@@H]1C(O)=C(C(N)=O)C(=O)[C@@]2(O)C(O)=C3C(=O)c4c(O)cccc4[C@@](C)(O)[C@H]3C[C@@H]12 [tetracycline] has an MIC [1] of 16 µg/mL (≈ 36 µM), an MIC [2] of about 16 µg/mL (≈ 36 µM) and an MIC ([3]; Bifidobacterium animalis, read-out: MIC for tetracycline) of about 0.3 µg/mL (≈ 0.675 µM). For the same compound, the “times more sensitive to tetracycline than parent wild-type strain NCC 2818” value ([3]; NCC 9034 versus NCC 2818, ratio of E-TEST MICs) was “about 50 times”.
